{"source": "patent US20080057113A1", "about": "“Pharmaceutical Anti-Herpetic Composition, Method for Producing a Dosage Form Based Thereon and Method for the Use Thereof” (priority 2003, published 2008)", "tested_on": "herpetic infection", "test": "Effectiveness of treating herpetic infection upon incorporation of isoleucine", "assay_type": "in vivo", "details": "isoleucine incorporated into the composition", "method": "The effectiveness of treating herpetic infection increases to a considerable extent upon incorporation of isoleucine into the composition, by 10-28% as compared to control. Isoleucine may be contained in the formulation of the preparation in an amount of 0.11-0.22 g per 100 ml of composition.", "data": [{"smiles": "CC[C@H](C)[C@H](N)C(=O)O", "note": "[isoleucine]", "values": [{"measurement": "Increase of effectiveness of treating herpetic infection as compared to control", "value": "10-28%"}]}]}
